Laboratory results published in US20140342025A1, “ARJUNOLIC ACID FOR INCREASING SEBUM PRODUCTION” (EVONIK INDUSTRIES AG, priority 2011, published 2014).

Experiment: Percutaneous absorption study on a pig skin model
Type: in vitro ADME
Conditions: arjunolic acid in combination with 1,2-pentanediol in cosmetic formulation vs. formulation without 1,2-pentanediol; FIG. 2
Protocol: In practice, the study was performed in accordance with a current protocol, as described for example in S. Richert, A. Schrader, K. Schrader, Int. J. Cosmet. Sci. 2003, 25, 5-13.

bioavailability (skin penetration) as a function of solvent: increase in bioavailability
Compound: CC1(C)CC[C@]2(C(=O)O)CC[C@]3(C)C(=CC[C@@H]4[C@@]5(C)C[C@@H](O)[C@H](O)[C@@](C)(CO)[C@@H]5CC[C@]43C)[C@@H]2C1 [arjunolic acid]
